According to patent US8192962B2, “Processes for detecting toxic substances” (Daikin Industries, Ltd., priority 2001, dated 2012):

System: Energy system protein genes
Test: DNA chip mRNA expression in yeast, energy system protein genes (Table 4)
Format: cell-based, Saccharomyces cerevisiae S288C
Outline: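 Whole-genome yeast DNA chip hybridization (65° C., >12 h) of Cy-labeled cDNA from S288C cells exposed 2 h at 25° C. to a sub-lethal toxicant dose in YPD; value is intensity relative to chemical-free control.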

## [Cl][Pb][Cl] [(4), PbCl2]
Yeast gene YJR048W
  The level of expressed mRNA in the presence of chemical substance/The level of expressed mRNA in the absence of chemical substance: 1.4
Yeast gene YJR121W, cells incubated two hours with the chemical substance
  The level of expressed mRNA in the presence of chemical substance/The level of expressed mRNA in the absence of chemical substance: 1.0
Yeast gene YJR155W
  The level of expressed mRNA in the presence of chemical substance/The level of expressed mRNA in the absence of chemical substance: 2.5
Yeast gene YKL016C, cells incubated two hours with the chemical substance
  The level of expressed mRNA in the presence of chemical substance/The level of expressed mRNA in the absence of chemical substance: 1.7
Yeast gene YKL060C, cells incubated two hours with the chemical substance
  The level of expressed mRNA in the presence of chemical substance/The level of expressed mRNA in the absence of chemical substance: 1.0
Yeast gene YKL141W, cells incubated two hours with the chemical substance
  The level of expressed mRNA in the presence of chemical substance/The level of expressed mRNA in the absence of chemical substance: 1.7
Yeast gene YKL148C, cells incubated two hours with the chemical substance
  The level of expressed mRNA in the presence of chemical substance/The level of expressed mRNA in the absence of chemical substance: 0.7
Yeast gene YKR009C, cells incubated two hours with the chemical substance
  The level of expressed mRNA in the presence of chemical substance/The level of expressed mRNA in the absence of chemical substance: 0.9
Yeast gene YKR058W, cells incubated two hours with the chemical substance, 25° C., YPD medium
  The level of expressed mRNA in the presence of chemical substance/The level of expressed mRNA in the absence of chemical substance: 1.9
Yeast gene YKR097W
  The level of expressed mRNA in the presence of chemical substance/The level of expressed mRNA in the absence of chemical substance: 3.3
Yeast gene YLL041C, cells incubated two hours with the chemical substance
  The level of expressed mRNA in the presence of chemical substance/The level of expressed mRNA in the absence of chemical substance: 1.0
Yeast gene YLR038C, cells incubated two hours with the chemical substance
  The level of expressed mRNA in the presence of chemical substance/The level of expressed mRNA in the absence of chemical substance: 2.1
Yeast gene YLR044C, cells incubated two hours with the chemical substance
  The level of expressed mRNA in the presence of chemical substance/The level of expressed mRNA in the absence of chemical substance: 0.9
Yeast gene YLR134W, cells incubated two hours with the chemical substance
  The level of expressed mRNA in the presence of chemical substance/The level of expressed mRNA in the absence of chemical substance: 0.8
Yeast gene YLR258W, cells incubated two hours with the chemical substance
  The level of expressed mRNA in the presence of chemical substance/The level of expressed mRNA in the absence of chemical substance: 3.5
Yeast gene YLR284C, cells incubated two hours with the chemical substance
  The level of expressed mRNA in the presence of chemical substance/The level of expressed mRNA in the absence of chemical substance: 1.9
Yeast gene YLR295C, cells incubated two hours with the chemical substance, 25° C., YPD medium
  The level of expressed mRNA in the presence of chemical substance/The level of expressed mRNA in the absence of chemical substance: 1.7
Yeast gene YLR304C, cells incubated two hours with the chemical substance
  The level of expressed mRNA in the presence of chemical substance/The level of expressed mRNA in the absence of chemical substance: 0.7
Yeast gene YLR345W
  The level of expressed mRNA in the presence of chemical substance/The level of expressed mRNA in the absence of chemical substance: 1.2
Yeast gene YLR354C, cells incubated two hours with the chemical substance
  The level of expressed mRNA in the presence of chemical substance/The level of expressed mRNA in the absence of chemical substance: 1.5
Yeast gene YLR377C, cells incubated two hours with the chemical substance
  The level of expressed mRNA in the presence of chemical substance/The level of expressed mRNA in the absence of chemical substance: 1.2
Yeast gene YLR395C, cells incubated two hours with the chemical substance
  The level of expressed mRNA in the presence of chemical substance/The level of expressed mRNA in the absence of chemical substance: 1.9
Yeast gene YML087C
  The level of expressed mRNA in the presence of chemical substance/The level of expressed mRNA in the absence of chemical substance: 2.5
Yeast gene YML120C, cells incubated two hours with the chemical substance
  The level of expressed mRNA in the presence of chemical substance/The level of expressed mRNA in the absence of chemical substance: 1.9
Yeast gene YML129C, cells incubated two hours with the chemical substance
  The level of expressed mRNA in the presence of chemical substance/The level of expressed mRNA in the absence of chemical substance: 1.2
Yeast gene YMR073C, cells incubated two hours with the chemical substance
  The level of expressed mRNA in the presence of chemical substance/The level of expressed mRNA in the absence of chemical substance: 1.5
Yeast gene YMR118C
  The level of expressed mRNA in the presence of chemical substance/The level of expressed mRNA in the absence of chemical substance: 1.6
Yeast gene YMR205C, cells incubated two hours with the chemical substance
  The level of expressed mRNA in the presence of chemical substance/The level of expressed mRNA in the absence of chemical substance: 0.8
Yeast gene YMR261C, cells incubated two hours with the chemical substance
  The level of expressed mRNA in the presence of chemical substance/The level of expressed mRNA in the absence of chemical substance: 0.8
Yeast gene YMR267W, cells incubated two hours with the chemical substance, 25° C., YPD medium
  The level of expressed mRNA in the presence of chemical substance/The level of expressed mRNA in the absence of chemical substance: 0.9
Yeast gene YMR323W, cells incubated two hours with the chemical substance
  The level of expressed mRNA in the presence of chemical substance/The level of expressed mRNA in the absence of chemical substance: 1.1
Yeast gene YNL071W
  The level of expressed mRNA in the presence of chemical substance/The level of expressed mRNA in the absence of chemical substance: 1.5
Yeast gene YNL202W, cells incubated two hours with the chemical substance
  The level of expressed mRNA in the presence of chemical substance/The level of expressed mRNA in the absence of chemical substance: 1.7
Yeast gene YNL241C
  The level of expressed mRNA in the presence of chemical substance/The level of expressed mRNA in the absence of chemical substance: 1.0
Yeast gene YNL331C
  The level of expressed mRNA in the presence of chemical substance/The level of expressed mRNA in the absence of chemical substance: 1.0
Yeast gene YOL086C, cells incubated two hours with the chemical substance
  The level of expressed mRNA in the presence of chemical substance/The level of expressed mRNA in the absence of chemical substance: 1.1
Yeast gene YOL165C
  The level of expressed mRNA in the presence of chemical substance/The level of expressed mRNA in the absence of chemical substance: 0.9
Yeast gene YOR142W, cells incubated two hours with the chemical substance
  The level of expressed mRNA in the presence of chemical substance/The level of expressed mRNA in the absence of chemical substance: 1.0
Yeast gene YOR178C, cells incubated two hours with the chemical substance
  The level of expressed mRNA in the presence of chemical substance/The level of expressed mRNA in the absence of chemical substance: 2.3
Yeast gene YOR388C, cells incubated two hours with the chemical substance
  The level of expressed mRNA in the presence of chemical substance/The level of expressed mRNA in the absence of chemical substance: 4.7
Yeast gene YPL031C, cells incubated two hours with the chemical substance
  The level of expressed mRNA in the presence of chemical substance/The level of expressed mRNA in the absence of chemical substance: 0.8
Yeast gene YPL061W, cells incubated two hours with the chemical substance
  The level of expressed mRNA in the presence of chemical substance/The level of expressed mRNA in the absence of chemical substance: 1.3
Yeast gene YPL088W
  The level of expressed mRNA in the presence of chemical substance/The level of expressed mRNA in the absence of chemical substance: 2.5
Yeast gene YPL171C
  The level of expressed mRNA in the presence of chemical substance/The level of expressed mRNA in the absence of chemical substance: 2.2
Yeast gene YPL240C
  The level of expressed mRNA in the presence of chemical substance/The level of expressed mRNA in the absence of chemical substance: 0.9
Yeast gene YPL262W, cells incubated two hours with the chemical substance
  The level of expressed mRNA in the presence of chemical substance/The level of expressed mRNA in the absence of chemical substance: 1.2
Yeast gene YPL275W, cells incubated two hours with the chemical substance
  The level of expressed mRNA in the presence of chemical substance/The level of expressed mRNA in the absence of chemical substance: 5.1
Yeast gene YPL276W, cells incubated two hours with the chemical substance
  The level of expressed mRNA in the presence of chemical substance/The level of expressed mRNA in the absence of chemical substance: 3.0
Yeast gene YPR048W, cells incubated two hours with the chemical substance
  The level of expressed mRNA in the presence of chemical substance/The level of expressed mRNA in the absence of chemical substance: 1.1
Yeast gene YPR184W, cells incubated two hours with the chemical substance
  The level of expressed mRNA in the presence of chemical substance/The level of expressed mRNA in the absence of chemical substance: 2.2
